# Experimental data: ChEMBL document CHEMBL3351775, “Design, synthesis and anti-HIV evaluation of novel diarylnicotinamide derivatives (DANAs) targeting the entrance channel of the NNRTI binding pocket through structure-guided molecular hybridization” (Eur J Med Chem, 2014)
# Structures can show the parent of a compound that is named as a salt.
# Assays:
# [1] = system: Human immunodeficiency virus 2; assay: Antiviral activity against HIV2 ROD infected in human MT4 cells assessed as inhibition of virus-induced […] after 5 days by MTT assay; assay type: functional, organism-based; conditions: Human immunodeficiency virus 2, ISOLATE ROD, MT4, 120 h
# [2] = system: Human immunodeficiency virus 1; assay: Antiviral activity against HIV1 3B infected in human MT4 cells assessed as inhibition of virus-induced […] after 5 days by MTT assay; assay type: functional, organism-based; conditions: Human immunodeficiency virus 1, 3B, MT4, 120 h
# [3] = system: Human immunodeficiency virus 1; assay: Antiviral activity against HIV1 RES056 expressing reverse transcriptase K103N + Y181C mutant infected in human MT4 cells assessed as inhibition of virus-induced […] after 5 days by MTT assay; assay type: functional, organism-based; conditions: Human immunodeficiency virus 1, RES056, MT4, 120 h
# [4] = Cytotoxicity against mock-infected human MT4 cells after 5 days by MTT assay; assay type: cell-based
# [5] = biological target: Human immunodeficiency virus type 1 reverse transcriptase (Human immunodeficiency virus 1, UniProt Q72547); assay: Inhibition of HIV1 reverse transcriptase assessed as reduction in biotin-dUTP incorporation using poly(rA)-oligo(dT) as template/primer and digoxigenin-/biotin-labeled dUTP nucleotides incubated for 1 hr
# in vitro = conditions: human, MT4 cells, mock-infected (CC50) and HIV1 3B infected (EC50)
# Description: Selectivity index, ratio of CC50 for mock-infected human MT4 cells to EC50 for HIV1 3B infected in human MT4 cells
compound,measurement,setting,value
Cc1cc(C#N)cc(C)c1Oc1cc(Nc2ccc(C#N)cc2)ncc1C(=O)NCCN(C)C,EC50,[1],> 7.5 µM
same,EC50,[2],> 8.8 µM
same,EC50,[3],> 23.2 µM
same,CC50 at 120 h,[4],23.2 µM
same,IC50,[5],25.8 µM
same,selectivity ratio,in vitro,≤ 3
CCCNC(=O)c1cnc(Nc2ccc(C#N)cc2)cc1Oc1c(C)cc(C#N)cc1C,EC50,[1],> 170 µM
same,EC50,[2],0.54 µM
same,EC50,[3],> 170 µM
same,CC50 at 120 h,[4],170 µM
same,IC50,[5],4.14 µM
same,selectivity ratio,in vitro,321
COCCNC(=O)c1cnc(Nc2ccc(C#N)cc2)cc1Oc1c(C)cc(C#N)cc1C,EC50,[1],> 61 µM
same,EC50,[2],1.74 µM
same,EC50,[3],> 61 µM
same,CC50 at 120 h,[4],61 µM
same,IC50,[5],11.3 µM
same,selectivity ratio,in vitro,35
Cc1cc(C#N)cc(C)c1Oc1cc(Nc2ccc(C#N)cc2)ncc1C(=O)NCC1CC1,EC50,[1],> 146 µM
same,EC50,[2],0.85 µM
same,EC50,[3],> 146 µM
same,CC50 at 120 h,[4],> 146 µM
same,IC50,[5],4.25 µM
same,selectivity ratio,in vitro,≥ 175
C#CCNC(=O)c1cnc(Nc2ccc(C#N)cc2)cc1Oc1c(C)cc(C#N)cc1C,EC50,[1],> 167 µM
same,EC50,[2],0.24 µM
same,EC50,[3],> 167 µM
same,CC50 at 120 h,[4],167 µM
same,IC50,[5],1.29 µM
same,selectivity ratio,in vitro,703
COC(CNC(=O)c1cnc(Nc2ccc(C#N)cc2)cc1Oc1c(C)cc(C#N)cc1C)OC,EC50,[1],> 90.6 µM
same,EC50,[2],4.54 µM
same,EC50,[3],> 90.6 µM
same,CC50 at 120 h,[4],90.6 µM
same,IC50,[5],11.4 µM
same,selectivity ratio,in vitro,20
Cc1cc(C#N)cc(C)c1Oc1cc(Nc2ccc(C#N)cc2)ncc1C(=O)NC1CC1,EC50,[1],> 231 µM
same,EC50,[2],0.31 µM
same,EC50,[3],> 231 µM
same,CC50 at 120 h,[4],231 µM
same,IC50,[5],3.37 µM
same,selectivity ratio,in vitro,784
Cc1cc(C#N)cc(C)c1Oc1cc(Nc2ccc(C#N)cc2)ncc1C(=O)NCC1CCCO1 (stereo unspecified),EC50,[1],> 142 µM
same,EC50,[2],3.1 µM
same,EC50,[3],> 142 µM
same,CC50 at 120 h,[4],143 µM
same,IC50,[5],10.9 µM
same,selectivity ratio,in vitro,46
C=CCNC(=O)c1cnc(Nc2ccc(C#N)cc2)cc1Oc1c(C)cc(C#N)cc1C,EC50,[1],> 207 µM
same,EC50,[2],0.24 µM
same,EC50,[3],> 207 µM
same,CC50 at 120 h,[4],207 µM
same,IC50,[5],2.85 µM
same,selectivity ratio,in vitro,625
Cc1cc(C#N)cc(C)c1Oc1cc(Nc2ccc(C#N)cc2)ncc1C(=O)NCCC#N,EC50,[1],> 65.8 µM
same,EC50,[2],0.69 µM
same,EC50,[3],> 65.8 µM
same,CC50 at 120 h,[4],65.8 µM
same,IC50,[5],3.94 µM
same,selectivity ratio,in vitro,97
Cc1cc(C#N)cc(C)c1Oc1cc(Nc2ccc(C#N)cc2)ncc1C(N)=O,EC50,[1],> 326 µM
same,EC50,[2],0.05 µM
same,EC50,[3],> 326 µM
same,CC50 at 120 h,[4],> 326 µM
same,IC50,[5],0.08 µM
same,selectivity ratio,in vitro,> 6200
Cc1cc(C)c(Oc2cc(Nc3ccc(C#N)cc3)ncc2C(=O)NCCN(C)C)c(C)c1,EC50,[1],> 16.7 µM
same,EC50,[2],0.63 µM
same,EC50,[3],> 16.7 µM
same,CC50 at 120 h,[4],4.67 µM
same,IC50,[5],3.45 µM
same,selectivity ratio,in vitro,7
CCCNC(=O)c1cnc(Nc2ccc(C#N)cc2)cc1Oc1c(C)cc(C)cc1C,EC50,[1],> 11.1 µM
same,EC50,[2],0.055 µM
same,EC50,[3],> 11.2 µM
same,CC50 at 120 h,[4],18.9 µM
same,IC50,[5],0.32 µM
same,selectivity ratio,in vitro,335
COCCNC(=O)c1cnc(Nc2ccc(C#N)cc2)cc1Oc1c(C)cc(C)cc1C,EC50,[1],> 24 µM
same,EC50,[2],0.067 µM
same,EC50,[3],7.8 µM
same,CC50 at 120 h,[4],24 µM
same,IC50,[5],0.52 µM
same,selectivity ratio,in vitro,359
Cc1cc(C)c(Oc2cc(Nc3ccc(C#N)cc3)ncc2C(=O)NCC2CC2)c(C)c1,EC50,[1],> 30.6 µM
same,EC50,[2],0.11 µM
same,EC50,[3],> 30.6 µM
same,CC50 at 120 h,[4],30.6 µM
same,IC50,[5],0.68 µM
same,selectivity ratio,in vitro,264
C#CCNC(=O)c1cnc(Nc2ccc(C#N)cc2)cc1Oc1c(C)cc(C)cc1C,EC50,[1],> 73 µM
same,EC50,[2],0.029 µM
same,EC50,[3],6.1 µM
same,CC50 at 120 h,[4],73 µM
same,IC50,[5],0.07 µM
same,selectivity ratio,in vitro,2470
COC(CNC(=O)c1cnc(Nc2ccc(C#N)cc2)cc1Oc1c(C)cc(C)cc1C)OC,EC50,[1],> 23.2 µM
same,EC50,[2],0.28 µM
same,EC50,[3],> 23.2 µM
same,CC50 at 120 h,[4],23.2 µM
same,IC50,[5],1.89 µM
same,selectivity ratio,in vitro,83
Cc1cc(C)c(Oc2cc(Nc3ccc(C#N)cc3)ncc2C(=O)NC2CC2)c(C)c1,EC50,[1],> 25.7 µM
same,EC50,[2],0.24 µM
same,EC50,[3],> 25.8 µM
same,CC50 at 120 h,[4],25.8 µM
same,IC50,[5],0.23 µM
same,selectivity ratio,in vitro,103
Cc1cc(C)c(Oc2cc(Nc3ccc(C#N)cc3)ncc2C(=O)NCC2CCCO2)c(C)c1 (stereo unspecified),EC50,[1],> 274 µM
same,EC50,[2],0.18 µM
same,EC50,[3],> 274 µM
same,CC50 at 120 h,[4],> 274 µM
same,IC50,[5],1.2 µM
same,selectivity ratio,in vitro,> 1490
C=CCNC(=O)c1cnc(Nc2ccc(C#N)cc2)cc1Oc1c(C)cc(C)cc1C,EC50,[1],> 21.5 µM
same,EC50,[2],0.058 µM
same,EC50,[3],10.1 µM
same,CC50 at 120 h,[4],21.3 µM
same,IC50,[5],0.17 µM
same,selectivity ratio,in vitro,364
Cc1cc(C)c(Oc2cc(Nc3ccc(C#N)cc3)ncc2C(=O)NCCC#N)c(C)c1,EC50,[1],> 9.9 µM
same,EC50,[2],0.033 µM
same,EC50,[3],> 9.89 µM
same,CC50 at 120 h,[4],9.89 µM
same,IC50,[5],0.19 µM
same,selectivity ratio,in vitro,310
Cc1cc(C)c(Oc2cc(Nc3ccc(C#N)cc3)ncc2C(N)=O)c(C)c1,EC50,[1],> 336 µM
same,EC50,[2],0.027 µM
same,EC50,[3],> 336 µM
same,CC50 at 120 h,[4],> 336 µM
same,IC50,[5],0.02 µM
same,selectivity ratio,in vitro,> 12500
CC(C)Nc1cccnc1N1CCN(C(=O)c2cc3cc(NS(C)(=O)=O)ccc3[nH]2)CC1 [DELAVIRDINE MESYLATE],EC50,[2],0.66 µM
same,EC50,[3],> 43.8 µM
same,CC50 at 120 h,[4],> 43.8 µM
same,selectivity ratio,in vitro,> 67
O=c1[nH]cnc2c1ncn2[C@H]1CC[C@@H](CO)O1 [DIDANOSINE],EC50,[1],44.9 µM
same,EC50,[2],23.2 µM
same,CC50 at 120 h,[4],> 212 µM
same,selectivity ratio,in vitro,> 9
O=C1Nc2ccc(Cl)cc2[C@@](C#CC2CC2)(C(F)(F)F)O1 [EFAVIRENZ],EC50,[2],0.0063 µM
same,CC50 at 120 h,[4],> 6.34 µM
Cc1cc(C#N)cc(C)c1Oc1nc(Nc2ccc(C#N)cc2)nc(N)c1Br [ETRAVIRINE],EC50,[2],0.0041 µM
same,EC50,[3],0.025 µM
same,CC50 at 120 h,[4],> 4.59 µM
same,selectivity ratio,in vitro,> 1130
Nc1ccn([C@@H]2CS[C@H](CO)O2)c(=O)n1 [LAMIVUDINE],EC50,[1],8.81 µM
same,EC50,[2],2.22 µM
same,CC50 at 120 h,[4],> 87.2 µM
same,selectivity ratio,in vitro,> 39
Cc1ccnc2c1NC(=O)c1cccnc1N2C1CC1 [NEVIRAPINE],EC50,[2],0.31 µM
same,EC50,[3],> 7.58 µM
same,CC50 at 120 h,[4],> 15 µM
Cc1cn([C@H]2C[C@H](N=[N+]=[N-])[C@@H](CO)O2)c(=O)[nH]c1=O [ZIDOVUDINE],EC50,[1],0.0067 µM
same,EC50,[3],0.01 µM
same,CC50 at 120 h,[4],> 93.5 µM
